The values below come from patent publication US20110256613A1, “Designer proton-channel transgenic algae for photobiological hydrogen production” (priority 2006, published 2011).

Molecules are shown by their SMILES.

In series [1] the test system is photosystem II (PSII) water-splitting complex in algal cells. Particulars: cited from earlier work.
The next series deals with algal system. Description: Competitive inhibition of photosynthetic H2 production by CO2. Format: cell-based. The source says: (2). Competitive inhibition of photosynthetic H2 production by CO2. […] This inhibition of H2 evolution by CO2 has been characterized in experimental studies at ORNL. […] Therefore, unless the alga is genetically reengineered to control the Calvin cycle activity, photosynthetic H2 production would require a nearly CO2-free environment.

Another series concerns photosystem II (PSII). Particulars: addition of HCO3− to HCO3−-depleted samples; cited from earlier work.
A further series has as its system algal H2 production. Description: Competitive inhibition of photosynthetic H2 production by O2. The series is classed as cell-based. The text has this: (§1) (4). Competitive drainage of electrons by O2 in algal H2 production. We have recently discovered a new O2 sensitivity in algal H2 production that is distinct from the O2 sensitivity of hydrogenase per se. This O2 sensitivity is apparently linked to the photosynthetic H2 production pathway that is coupled to proton translocation across the thylakoid membrane. […] This inhibition is likely due to the background O2, which apparently serves as a terminal electron acceptor in competition with the H2-production pathway for photosynthetically generated electrons from water splitting. The Rubisco enzyme of the Calvin cycle is known to be also an oxygenase in addition to its carboxylase activity. […] That is, the drainage of electrons by O2 is likely to occur at the point of Rubisco, which is one of the key enzymes of the Calvin cycle. This competitive inhibition of H2 production by O2 is much more of a problem than the traditionally known O2 sensitivity of the hydrogenase per se. […] The competitive inhibition of H2 production by O2 is about 10 times more sensitive to O2 than the traditionally known O2 sensitivity of hydrogenase. The drainage of electrons by O2 in competition with the Fd/hydrogenase H2 production pathway is 10 time more sensitive to O2 than the O2 sensitivity of the hydrogenase. […]

The next series has as its system algal hydrogenase. Description: O2 sensitivity of hydrogenase per se. The series is classed as biochemical.
From the text: as §1

Turning to `N#CC(C#N)=NNc1cccc(Cl)c1` [CCCP, carbonyl cyanide m-chlorophenylhydrazone], the “side effects on photosynthetic activity (ADRY effect)” value in series [1] was “undesirable side effects”.
For `O=C=O` [CO2, carbon dioxide], the “steady-state H2 photoevolution after CO2 injection” value in the series on algal system (injection of 58 ppm CO2) is reported as “inhibited to nearly zero”. Also, the “CO2 concentration to which the algal system is sensitive” value with algal system (lowest concentration, H2 photoevolution) was 30 ppm.
For `O=C(O)O` [HCO3^−, Bicarbonate], the “stimulation of PSII electron-transport activity” value in the series on photosystem II (PSII) is on record as 6- to 7 fold.
In the case of `O=O` [O2], the “O2 concentration that inhibits photosynthetic H2 production” value in the series on algal H2 production (lowest inhibiting concentration) is on record as 500-1000 ppm. Further, the “O2 sensitivity of competitive inhibition of H2 production relative to O2 sensitivity of hydrogenase” value in the series with algal H2 production (ratio versus hydrogenase O2 sensitivity) is “about 10 times”. In addition, the “O2 concentration at which algal hydrogenase is still active” value in the series on algal hydrogenase is 5000 ppm.
